Test results taken from PMC5041959, “A high-content EMT screen identifies multiple receptor tyrosine kinase inhibitors with activity on TGFβ receptor” (Oncotarget, 2016).
pIC50: −log10 of the molar value. Where two headings read alike, the source gives them in different places.

Tests used:
NMuMG cells = assay: High-content microscopy EMT screen in TGFβ-treated NMuMG cells (FA, SF, FN, cell count); type: cell-based, murine
SRC = SRC (Homo sapiens, UniProt P12931); assay: Biochemical kinase profiling (33PanQinase radiometric assay); conditions: read-out: SRC IC50; ATP at apparent Km
Sequence of SRC (P12931 whole entry): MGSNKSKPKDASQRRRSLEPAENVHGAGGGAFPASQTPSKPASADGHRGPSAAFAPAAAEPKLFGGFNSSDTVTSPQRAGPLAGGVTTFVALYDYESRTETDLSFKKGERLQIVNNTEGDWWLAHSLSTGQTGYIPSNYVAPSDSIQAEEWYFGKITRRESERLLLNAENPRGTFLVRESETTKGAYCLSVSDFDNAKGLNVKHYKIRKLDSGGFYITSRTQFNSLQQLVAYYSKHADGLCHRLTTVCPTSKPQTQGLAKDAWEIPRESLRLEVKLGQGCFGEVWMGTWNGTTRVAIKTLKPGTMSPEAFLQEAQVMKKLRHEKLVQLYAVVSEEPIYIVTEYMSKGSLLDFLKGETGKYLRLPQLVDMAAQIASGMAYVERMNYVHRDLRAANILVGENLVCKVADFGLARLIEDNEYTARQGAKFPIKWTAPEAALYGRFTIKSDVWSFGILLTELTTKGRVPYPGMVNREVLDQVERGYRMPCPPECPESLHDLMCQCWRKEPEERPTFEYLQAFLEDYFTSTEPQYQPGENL

Py2T cells = assay: High-content microscopy EMT assay in TGFβ-treated Py2T breast cancer cells; type: cell-based, murine; conditions: for Emax (maximal effect on cell count): compared to reference 10 μM SB-431542 = 100%
ROCK = ROCK cellular assay (MLC Thr18/Ser19 phosphorylation ELISA in A7r5 cells); type: cell-based, rat; conditions: 90 min compound
[1] = Mus musculus; NMuMG; cell count decreased by 50% compared to DMSO control; read-out: Tox IC50
[2] = NMuMG, TGFβ1 2 ng/ml plus compound, 4 days; parameter decreased by 50%
[3] = NMuMG; compared to reference 10 μM SB-431542 = 100%
[4] = NMuMG, TGFβ1 2 ng/ml plus compound, 4 days; parameter decreased by 50%; read-out: FA IC50 (focal adhesion formation)
[5] = NMuMG, TGFβ1 2 ng/ml plus compound, 4 days; parameter decreased by 50%; read-out: FN IC50 (fibronectin patch formation)
[6] = NMuMG, TGFβ1 2 ng/ml plus compound, 4 days; parameter decreased by 50%; read-out: SF IC50 (stress fibers)
[7] = NMuMG; cell count decreased by 50% compared to DMSO control; read-out: Tox IC50
[8] = NMuMG; mean of IC50 values obtained for FA, SF, FN; read-out: EMT (FA/SF/FN) combined IC50
[9] = Mus musculus, read-out: CCI IC50 (cell count increase)
[10] = Mus musculus, read-out: Emax (maximal effect on cell count)
[11] = Mus musculus, read-out: Tox IC50
[12] = Py2T, cell count decreased by 50% compared to DMSO control, read-out: Tox IC50
[13] = Py2T, compared to 10 μM SB-431542, read-out: CCI IC50 (cell count increase)
[14] = NMuMG; cell count increased by 50% compared to 100% with 10 μM SB-431542
[15] = Py2T, TGFβ plus compound, 4 days

Row | Molecule | pIC50 (NMuMG cells; [1]) | FA IC50 (focal adhesion formation) (NMuMG cells; [2]) | FN IC50 (fibronectin patch formation) (NMuMG cells; [2]) | SF IC50 (stress fibers) (NMuMG cells; [2]) | Emax (maximal effect on cell count) (NMuMG cells; [3]) | also measured
1 | Nc1ncn([C@H]2C[C@H](O)[C@@H](CO)O2)c(=O)n1 [5-Aza-2′-deoxycytidine] | 6.41 | n.m. | n.m. | n.m. | n.m. | –
2 | Nc1ncn([C@@H]2O[C@H](CO)[C@@H](O)[C@H]2O)c(=O)n1 [5-Azacytidine] | 5.90 | n.m. | n.m. | n.m. | n.m. | –
3 | O=c1[nH]c(=O)n([C@H]2C[C@H](O)[C@@H](CO)O2)cc1Br [5-Bromo-2′-deoxyuridine] | < 5.52 | – | – | – | – | pIC50 (NMuMG cells; Mus musculus, 96 h; NMuMG, TGFβ1 2 ng/ml plus compound, 4 days; parameter decreased by 50%; read-out: FA IC50 (focal adhesion formation)): 6.14; pIC50 (NMuMG cells; Mus musculus, 96 h; NMuMG, TGFβ1 2 ng/ml plus compound, 4 days; parameter decreased by 50%; read-out: FN IC50 (fibronectin patch formation)): 6.49; pIC50 (NMuMG cells; Mus musculus, 96 h; NMuMG, TGFβ1 2 ng/ml plus compound, 4 days; parameter decreased by 50%; read-out: SF IC50 (stress fibers)): 6.20; pIC50 (NMuMG cells; Mus musculus; read-out: CCI IC50 (cell count increase)): 6.52; Emax (NMuMG cells; Mus musculus; read-out: Emax (maximal effect on cell count)): 19%
4 | CCN1CCN(Cc2ccc(-c3cc4c(N[C@H](C)c5ccccc5)ncnc4[nH]3)cc2)CC1 [AEE788] | 7.36 | n.m. | n.m. | n.m. | n.m. | –
5 | CNC(=O)c1ccccc1Sc1ccc2c(/C=C/c3ccccn3)n[nH]c2c1 [Axitinib] | – | – | – | – | n.m. | –
6 | Cc1ccc2c(c1)C(=O)C1(O)CCN(c3ccccc3)C1=N2 (stereo not shown) [Blebbistatin] | – | – | – | – | 29.4% | pIC50 (SRC): 5.36; pIC50 (NMuMG cells; [4]): 5.37; pIC50 (NMuMG cells; [5]): 5.59; pIC50 (NMuMG cells; [6]): 5.48; pIC50 (NMuMG cells; [7]): < 5.29; pIC50 (NMuMG cells; [8]): 5.47
7 | COc1cc2c(Oc3ccc4[nH]c(C)cc4c3F)ncnc2cc1OCCCN1CCCC1 [Cediranib (azd2171), Cediranib] | 6.01 | n.m. | n.m. | n.m. | n.m. | –
8 | C[C@@H](Oc1cc(-c2cnn(C3CCNCC3)c2)cnc1N)c1c(Cl)ccc(F)c1Cl [Crizotinib] | 5.77 | n.m. | n.m. | n.m. | n.m. | –
9 | Cc1nc(Nc2ncc(C(=O)Nc3c(C)cccc3Cl)s2)cc(N2CCN(CCO)CC2)n1 [Dasatinib] | 7.29 | n.m. | n.m. | n.m. | n.m. | –
10 | c1ccc2c(c1)[I+]c1ccccc1-2 [Diphenyleneiodonium chloride (DPI), Diphenyleneiodonium chloride] | 6.34 | n.m. | n.m. | n.m. | n.m. | –
11 | C#Cc1cccc(Nc2ncnc3cc(OCCOC)c(OCCOC)cc23)c1 [Erlotinib] | 7.16 | n.m. | n.m. | n.m. | – | Emax (maximal effect on cell count) (NMuMG cells): n.m.
12 | COc1cc([C@@H]2c3cc4c(cc3[C@@H](O[C@@H]3O[C@@H]5CO[C@@H](C)O[C@H]5[C@H](O)[C@H]3O)[C@H]3COC(=O)[C@H]23)OCO4)cc(OC)c1O [Etoposide] | 5.93 | n.m. | n.m. | n.m. | n.m. | –
13 | O=S(=O)(c1cccc2cnccc12)N1CCCNCC1 [Fasudil] | – | – | – | – | – | pIC50 (NMuMG cells; [9]): 5.54; pIC50 (NMuMG cells; Mus musculus, read-out: EMT (FA/SF/FN) combined IC50): 5.52; Emax (NMuMG cells; [10]): 28.2%; pIC50 (NMuMG cells; [11]): < 4.60; pIC50 (Py2T cells; [9]): 5.77; Emax (Py2T cells; [10]): 53.6%; pIC50 (Py2T cells; [11]): < 4.60
14 | CCn1c(-c2nonc2N)nc2cnc(Oc3cccc(NC(=O)c4ccc(OCCN5CCOCC5)cc4)c3)cc21 [GSK269962] | – | – | – | – | – | pIC50 (ROCK): > 8.52; pIC50 (Py2T cells; Py2T, TGFβ plus compound, 4 days, read-out: FA IC50 (focal adhesions)): 8.70; pIC50 (Py2T cells; Py2T, TGFβ plus compound, 4 days, read-out: FN IC50 (fibronectin patches)): 8.30; pIC50 (Py2T cells; Py2T, TGFβ plus compound, 4 days, read-out: SF IC50 (stress fibers)): 8.70; pIC50 (Py2T cells; [12]): 6.25; pIC50 (Py2T cells; [13]): 9.30; Emax (maximal effect on cell count) (Py2T cells; Py2T): 53%
15 | COc1cc2ncnc(Nc3ccc(F)c(Cl)c3)c2cc1OCCCN1CCOCC1 [Gefitinib] | – | – | – | – | – | Emax (maximal effect on cell count) (NMuMG cells): n.m.
16 | O=C(Cc1ccc(-c2ccc(OCCN3CCOCC3)cc2)cn1)NCc1ccccc1 [KX2-391] | – | n.m. | n.m. | n.m. | n.m. | pIC50 (NMuMG cells; [7]): 7.82; CCI IC50 (cell count increase) (NMuMG cells; [14]): n.m.
17 | CS(=O)(=O)CCNCc1ccc(-c2ccc3ncnc(Nc4ccc(OCc5cccc(F)c5)c(Cl)c4)c3c2)o1 [Lapatinib] | 6.87 | n.m. | n.m. | n.m. | n.m. | –
18 | CO[C@@H]1C[C@@H](C[C@H]2CC[C@H](C)[C@H]([C@@H](C)C(=O)O)O2)O[C@]2(O[C@](C)([C@H]3CC[C@@](C)([C@@H]4O[C@@H]([C@H]5O[C@@](O)(CO)[C@H](C)C[C@@H]5C)C[C@@H]4C)O3)C[C@H]2C)[C@@H]1C [Nigericin] | > 7.40 | n.m. | n.m. | n.m. | n.m. | –
19 | CC(C)(C)n1nc(-c2ccc(Cl)cc2)c2c(N)ncnc21 [PP2] | – | n.m. | n.m. | n.m. | n.m. | pIC50 (NMuMG cells; [7]): 5.33; CCI IC50 (cell count increase) (NMuMG cells; [14]): n.m.
20 | O=C(Nc1ccc(-c2cn[nH]c2)cc1)C1COc2ccccc2O1 (stereo not shown) [Rho kinase inhibitor V] | – | – | – | – | 13.4% | pIC50 (ROCK): 6.82; pIC50 (NMuMG cells; [4]): 6.37; pIC50 (NMuMG cells; [5]): 6.43; pIC50 (NMuMG cells; [6]): 6.24; pIC50 (NMuMG cells; [7]): 5.21; pIC50 (NMuMG cells; NMuMG; cell count increased by 50% compared to 100% with 10 μM SB-431542; read-out: CCI IC50 (cell count increase)): 6.97; pIC50 (NMuMG cells; [8]): 6.34; FA IC50 (focal adhesions) (Py2T cells; [15]): n.m.; FN IC50 (fibronectin patches) (Py2T cells; [15]): n.m.; SF IC50 (stress fibers) (Py2T cells; [15]): n.m.; pIC50 (Py2T cells; [12]): 5.60; pIC50 (Py2T cells; [13]): 7.00; Emax (maximal effect on cell count) (Py2T cells; Py2T): 33.3%
21 | CC[C@@H](C(=O)[C@@H](C)[C@@H](O)[C@H](C)[C@@H]1O[C@@H]([C@@H](CC)C(=O)O)CC[C@@H]1C)[C@H]1O[C@]2(C=C[C@@H](O)[C@]3(CC[C@@](C)([C@H]4CC[C@](O)(CC)[C@H](C)O4)O3)O2)[C@H](C)C[C@@H]1C [Salinomycin] | 6.62 | n.m. | n.m. | n.m. | – | Emax (maximal effect on cell count) (NMuMG cells): n.m.
22 | CCN(CC)CCNC(=O)c1c(C)[nH]c(/C=C2\C(=O)Nc3ccc(F)cc32)c1C [Sunitinib malate] | 5.29 | n.m. | n.m. | n.m. | n.m. | –
23 | N#CC(=C(/N)Sc1ccccc1N)/C(C#N)=C(/N)Sc1ccccc1N [U0126] | – | n.m. | n.m. | n.m. | n.m. | pIC50 (NMuMG cells; [7]): 5.80; CCI IC50 (cell count increase) (NMuMG cells; [14]): n.m.
24 | COc1cc2c(Nc3ccc(Br)cc3F)ncnc2cc1OCC1CCN(C)CC1 [Vandetanib] | 6.68 | n.m. | n.m. | n.m. | n.m. | –
25 | Clc1ccc(Nc2nnc(Cc3ccncc3)c3ccccc23)cc1 [Vatalanib] | 4.98 | n.m. | n.m. | n.m. | n.m. | –
26 | AZD4547 | – | n.m. | n.m. | n.m. | – | CCI IC50 (cell count increase) (NMuMG cells): n.m.; Emax (maximal effect on cell count) (NMuMG cells): n.m.; pIC50 (NMuMG cells; [7]): 5.52
27 | Abamectin | – | n.m. | n.m. | n.m. | n.m. | pIC50 (NMuMG cells; [7]): 5.02; CCI IC50 (cell count increase) (NMuMG cells; [14]): n.m.
